Activity, viability and inhibition data for three compounds are collected here from ChEMBL document CHEMBL6096630, “Enhancing therapeutic efficacy in homologous recombination-proficient pancreatic cancer via the combination of PARP1-PROTAC and a BRD4 inhibitor” (Bioorg Med Chem, 2024).

Data set [1] can be described thus: Toxicity in BALB/c mouse xenografted with human PANC-1 cells assessed as drug tolerance at 40 mg/kg, ip for 4 weeks administered for 5 days consecutively and 2 days without treatment on every week in presence of JQ1. The class given is organism-based. Conditions: in vivo, 672 h. A general note: In xenograft studies the graft and the host belong to different species.

Data set [2] has as its system PANC-1. As to the kind of experiment: Induction of cell cycle arrest in human PANC-1 cells assessed as accumulation at G2/M phase incubated for 24 hrs by PI staining based flow cytometry. The class given is functional. Conditions: dose 0.6-2 µM. For orientation: A flow cytometer gives signals particle by particle.
In data set [3] the test system is PANC-1. The experiment in a line: Induction of apoptosis in human PANC-1 cells assessed as viable cells at 0.6 uM incubated for 48 hrs by Annexin V-FITC/PI staining based flow cytometry (reference value: 91.64 %). The class given is functional. As to conditions: read-out: Activity.
Data set [4] in a line: Toxicity in BALB/c mouse xenografted with human PANC-1 cells assessed as pathological changes in spleen at 40 mg/kg, ip for 4 weeks administered for 5 days consecutively and 2 days without treatment on every week in presence of JQ1 by H and E staining based analysis. Conditions: in vivo, 672 h. The class given is organism-based.
The test system of data set [5] is PANC-1. The experiment in a line: Induction of cell cycle arrest in human PANC-1 cells assessed as accumulation at G0/G1 phase at 2 uM incubated for 24 hrs in presence of JQ1 by PI staining based flow cytometry relative to control. The class given is functional.
Data set [6] is described as follows: Toxicity in BALB/c mouse xenografted with human PANC-1 cells assessed as body weight loss at 40 mg/kg, ip for 4 weeks administered for 5 days consecutively and 2 days without treatment on every week in presence of JQ1. The class given is organism-based. As to conditions: in vivo, 672 h.
Data set [7] has as its system PANC-1. The experiment in a line: Antitumor activity against human PANC-1 cells xenografted in BALB/c mouse assessed as inhibition of tumor weight at 40 mg/kg, ip for 4 weeks administered for 5 days consecutively and 2 days without treatment on every week in presence of JQ1. The class given is functional, organism-based.
A short description of data set [8]: Toxicity in BALB/c mouse xenografted with human PANC-1 cells assessed as animal morbidity at 40 mg/kg, ip for 4 weeks administered for 5 days consecutively and 2 days without treatment on every week. The class given is organism-based. As to conditions: in vivo, 672 h.
Data set [9] can be described thus: Toxicity in BALB/c mouse xenografted with human PANC-1 cells assessed as animal mortality at 40 mg/kg, ip for 4 weeks administered for 5 days consecutively and 2 days without treatment on every week. The class given is organism-based. Conditions: in vivo, 672 h.
Data set [10] relates to PANC-1. The experiment in a line: Anti-migration activity in human PANC-1 cells at 2 uM in presence of JQ1 incubated for 24 hrs by wound healing assay. The class given is functional, cell-based.
The subject of data set [11] is PANC-1. The experiment in a line: Induction of apoptosis in human PANC-1 cells assessed as necrotic cells at 0.6 uM incubated for 48 hrs by Annexin V-FITC/PI staining based flow cytometry (reference value: 3.09 %). The class given is functional.
Data set [12] can be described thus: Toxicity in BALB/c mouse xenografted with human PANC-1 cells assessed as pathological changes in liver at 40 mg/kg, ip for 4 weeks administered for 5 days consecutively and 2 days without treatment on every week in presence of JQ1 by H and E staining based analysis. The class given is organism-based. Conditions: in vivo, 672 h.
Data set [13] relates to PANC-1. As to the kind of experiment: Induction of DNA damage in human PANC-1 cells assessed as decrease in RAD51 level at 2 uM in presence of JQ1 by Western blot analysis. The class given is functional, cell-based. (Immunoblotting shows a protein as a band on a membrane.)
Data set [14] concerns PANC-1. As to the kind of experiment: Induction of apoptosis in human PANC-1 cells assessed as necrotic cells at 2 uM incubated for 48 hrs in presence of JQ1 by Annexin V-FITC/PI staining based flow cytometry (reference value: 3.09 %). The class given is functional.
Data set [15] concerns PANC-1. As to the kind of experiment: Induction of apoptosis in human PANC-1 cells assessed as late apoptotic cells at 2.5 uM incubated for 48 hrs by Annexin V-FITC/PI staining based flow cytometry (reference value: 3.87 %). The class given is functional.
Data set [16] relates to PANC-1. The experiment in a line: Induction of apoptosis in human PANC-1 cells assessed as late apoptotic cells at 5 uM incubated for 48 hrs by Annexin V-FITC/PI staining based flow cytometry (reference value: 3.87 %). The class given is functional.
Data set [17] has as its system PANC-1. The experiment in a line: Induction of apoptosis in human PANC-1 cells assessed as early apoptotic cells at 10 uM incubated for 48 hrs by Annexin V-FITC/PI staining based flow cytometry (reference value: 1.41 %). The class given is functional.
Data set [18] relates to PANC-1. The experiment in a line: Induction of cell cycle arrest in human PANC-1 cells assessed as accumulation at G1 phase at 2 uM incubated for 24 hrs in presence of JQ1 by PI staining based flow cytometry (reference value: 51.70 %). The class given is functional.
Data set [19] has as its system PANC-1. As to the kind of experiment: Induction of DNA damage in human PANC-1 cells assessed as decrease in BRCA1 level at 2 uM in presence of JQ1 by Western blot analysis. The class given is functional, cell-based.
The nature of data set [20]: Toxicity in BALB/c mouse xenografted with human PANC-1 cells assessed as drug tolerance at 40 mg/kg, ip for 4 weeks administered for 5 days consecutively and 2 days without treatment on every week. The class given is organism-based. Conditions: in vivo, 672 h.
Data set [21] has as its system PANC-1. The experiment in a line: Inhibition of colony formation in human PANC-1 cells at 2 uM incubated for 14 days by crystal violet staining based analysis. Conditions: time 14.0 day. The class given is functional, cell-based.
The test system of data set [22] is PANC-1. The experiment in a line: Induction of apoptosis in human PANC-1 cells assessed as early apoptotic cells at 1.2 uM incubated for 48 hrs by Annexin V-FITC/PI staining based flow cytometry (reference value: 1.41 %). The class given is functional.
Data set [23] relates to PANC-1. As to the kind of experiment: Induction of apoptosis in human PANC-1 cells assessed as viable cells at 2 uM incubated for 48 hrs in presence of JQ1 by Annexin V-FITC/PI staining based flow cytometry (reference value: 91.64 %). The class given is functional. Conditions: read-out: Activity.
Data set [24] relates to PANC-1. As to the kind of experiment: Induction of cell cycle arrest in human PANC-1 cells assessed as accumulation at G2 phase at 2 uM incubated for 24 hrs in presence of JQ1 by PI staining based flow cytometry (reference value: 9.36 %). The class given is functional.
Data set [25] relates to PANC-1. As to the kind of experiment: Induction of cell cycle arrest in human PANC-1 cells assessed as accumulation at G0/G1 phase at 0.12 to 2 uM incubated for 24 hrs by PI staining based flow cytometry. The class given is functional. Conditions: dose 0.12-2 µM.
For data set [26], the system named is PANC-1. As to the kind of experiment: Induction of cell cycle arrest in human PANC-1 cells assessed as accumulation at S phase at 10 uM incubated for 24 hrs by PI staining based flow cytometry (reference value: 38.94 %). The class given is functional.
A short description of data set [27]: Toxicity in BALB/c mouse xenografted with human PANC-1 cells assessed as pathological changes in kidney at 40 mg/kg, ip for 4 weeks administered for 5 days consecutively and 2 days without treatment on every week in presence of JQ1 by H and E staining based analysis. The class given is organism-based. As to conditions: in vivo, 672 h.
Data set [28] has as its system PANC-1. The experiment in a line: Induction of apoptosis in human PANC-1 cells assessed as viable cells at 5 uM incubated for 48 hrs by Annexin V-FITC/PI staining based flow cytometry (reference value: 91.64 %). The class given is functional. Conditions: read-out: Activity.
For data set [29], the system named is PANC-1. The experiment in a line: Induction of apoptosis in human PANC-1 cells assessed as early apoptotic cells at 0.6 uM incubated for 48 hrs by Annexin V-FITC/PI staining based flow cytometry (reference value: 1.41 %). The class given is functional.
A short description of data set [30]: Toxicity in BALB/c mouse xenografted with human PANC-1 cells assessed as pathological changes in liver at 40 mg/kg, ip for 4 weeks administered for 5 days consecutively and 2 days without treatment on every week by H and E staining based analysis. The class given is organism-based. As to conditions: in vivo, 672 h.
Data set [31] is described as follows: Toxicity in BALB/c mouse xenografted with human PANC-1 cells assessed as pathological changes in heart at 40 mg/kg, ip for 4 weeks administered for 5 days consecutively and 2 days without treatment on every week by H and E staining based analysis. The class given is organism-based. Conditions: in vivo, 672 h.

Activity calls are given as the source filed them. No cut-off for these calls is given here.

Take `O=C1CCC(N2C(=O)c3cccc(NC(=O)CNCCCCCCCCCCC(=O)N4CCN(C(=O)c5cc(Cc6n[nH]c(=O)c7ccccc67)ccc5F)CC4)c3C2=O)C(=O)N1` (configuration not stated): the Activity entry in [1] is “Non-toxic”; in data set [2] it was “Dose-dependent-effect”; in data set [4], “Non-toxic”; in [5], 50.25%; in data set [6], “Non-toxic”; in [8] it was “Non-toxic”. The Activity entry is recorded as “Non-toxic” in [9]; 3.52% in data set [11]; “Non-toxic” in data set [12]; 5% in [14]; 4.42% in data set [15]; 4.37% in data set [16]. The Activity in [17] is on record as 4.38%; in data set [18], 50.25%; in [20], “Non-toxic”; in data set [22], 3.8%; in data set [24] it was 22.93%; in [25], 43.66%. Besides, the Activity was 40.91% in [26]; “Non-toxic” in data set [27]; 3.9% in data set [29]; “Non-toxic” in data set [30]; “Non-toxic” in data set [31]. Further, the viability at 0.6 µM in data set [3] worked out at 88.9%. For the same compound, the inhibition result in data set [7] and in data set [21] was “Active” throughout. Further, the outcome in data set [10], in data set [13] and in data set [19] was Active. Moreover, in [23], the viability at 2 µM stood at 64.3%. In [28], the viability at 5 µM was determined as 86.7%.

`O=C(c1cc(Cc2n[nH]c(=O)c3ccccc23)ccc1F)N1CCN(C(=O)C2CC2)CC1` [OLAPARIB]: the Activity entry in data set [1] was “Non-toxic”; in data set [2] it was “Dose-dependent-effect”; in data set [4] it was “Non-toxic”; in data set [5] it was 12.43%; in [6] it was “Toxic”; in data set [8], “Non-toxic”. Besides, the Activity result is listed as “Non-toxic” in [9]; 3.23% in [11]; “Non-toxic” in data set [12]; 4.77% in data set [14]; 4.53% in data set [15]; 4.7% in data set [16]. For the same compound, the Activity in [17] was 3.98%; in data set [18] it was 58.42%; in data set [20] it was “Non-toxic”; in data set [22], 2.88%; in data set [24] it was 15.74%; in data set [26] it was 44.95%. Also, the Activity result in [27] is “Non-toxic”; in data set [29], 2.25%; in [30] it was “Non-toxic”; in data set [31] it was “Non-toxic”. Moreover, the viability at 0.6 µM in data set [3] was 90.3%. The inhibition entry in [7] and in data set [21] was “Active” each time. In addition, the result in data set [10], in data set [13] and in data set [19] was Active. In addition, the viability at 2 µM in [23] is 68.3%. In data set [28], the viability at 5 µM is 88.2%.

For `Cc1sc2c(c1C)C(c1ccc(Cl)cc1)=N[C@@H](CC(=O)OC(C)(C)C)c1nnc(C)n1-2`, the outcome in [25] was Active.
